For test [1], the system named is HeLa. The test can be described thus: Cytotoxicity against human HeLa cells assessed as inhibition of cell growth. Type of test: functional, cell-based.
Test [2] concerns SGC-7901. Nature of the test: Cytotoxicity against human SGC-7901 cells assessed as inhibition of cell growth. Type of test: functional, cell-based.
Test [3] deals with HCT-116. The test can be described thus: Cytotoxicity against human HCT-116 cells assessed as inhibition of cell growth. Type of test: functional, cell-based.
Test [4] deals with Staphylococcus aureus. The test can be described thus: Antibacterial activity against methicillin resistant Staphylococcus aureus USA300. Type of test: functional.
In test [5] the test system is Plasmodium falciparum. Nature of the test: Antimalarial activity against Plasmodium falciparum. Type of test: functional, organism-based.
Test [6] deals with Staphylococcus aureus. The test can be described thus: Antibacterial activity against Staphylococcus aureus. Type of test: functional, organism-based.

pIC50: −log10 of the molar value. Converted amounts (≈) assume the structure as drawn. Some results are limits rather than exact numbers.

As a reminder, the IC50 is the concentration that inhibits the measured activity by half. By MIC is commonly meant the lowest concentration found to suppress growth. The low end stands for greater potency, the high end for weaker potency. Broadly, the pIC50 is the IC50 on a negative log10 scale, so that one unit is a factor of ten. High values mean a small IC50, low ones a large IC50.

In the case of `CC(C)=CCC/C(C)=C/C[C@@H]1C[C@]2(C/C=C(\C)CCC=C(C)C)C(=O)[C@@](CC=C(C)C)(C(=O)C(C(=O)c3ccc(O)c(O)c3)=C2O)C1(C)C`, the IC50 in test [1] was found to be 8.09 µg/mL (≈ 12.1 µM); in test [2] it was 4.05 µg/mL (≈ 6.04 µM); in test [3], 4.92 µg/mL (≈ 7.33 µM).

`C=C(C)[C@H](CC=C(C)C)C[C@]12C[C@H](CC=C(C)C)C(C)(C)[C@](CC=C(C)C)(C(=O)C(C(=O)c3ccc(O)c(O)c3)=C1O)C2=O` had an MIC in test [4] of 7 µg/mL (≈ 11.6 µM).

On to `CC(C)=CC[C@@H]1C[C@]23C[C@@H](CC=C(C)C)C(C)(C)[C@](CC=C(C)C)(C(=O)C(C(=O)c4ccc(O)c(O)c4)=C2OC1(C)C)C3=O`, for which the MIC in test [4] is > 30 µg/mL.

Take `CC(C)=CCC/C(C)=C/C[C@]12C[C@@H](CC=C(C)C)C(C)(C)[C@](CC=C(C)C)(C(=O)C(C(=O)c3ccc(O)c(O)c3)=C1O)C2=O`: the values for the IC50 in test [1], in test [2] and in test [3] were 11.7 µg/mL (≈ 19.4 µM), 5.48 µg/mL (≈ 9.09 µM) and 8.6 µg/mL (≈ 14.3 µM), respectively.

Regarding `CC(C)=CC[C@@H]1C[C@]2(CC=C(C)C)C(=O)[C@@](CC=C(C)C)(C(=O)C(C(=O)c3ccccc3)=C2O)C1(C)C`, the IC50 in test [1] was found to be 12 µg/mL (≈ 23.8 µM); in test [2], 12 µg/mL (≈ 23.8 µM); in test [3], 6.87 µg/mL (≈ 13.7 µM).

Regarding `CC1(C)[C@H](Cc2ccccc2)C[C@@]2(Cc3ccccc3)C(=O)[C@]1(C)C(=O)C(C(=O)c1ccccc1)=C2O`, the MIC in test [4] was > 30 µg/mL.

Compound `CC(=O)C1=C(O)[C@@]2(CC=C(C)C)C[C@@H](CC=C(C)C)C(C)(C)[C@@](CC=C(C)C)(C1=O)C2=O` registered an MIC in test [4] of 1 µg/mL (≈ 2.27 µM).

`C=CC[C@@]12C[C@@H](CC=C(C)C)C(C)(C)[C@@](CC=C)(C(=O)C(C(C)=O)=C1O)C2=O`: the MIC in test [4] worked out at 2 µg/mL (≈ 5.2 µM).

In test [4], `C=CC[C@@]12C(=O)C(C(=O)c3ccccc3)=C(O)[C@@](Cc3ccccc3)(C[C@@H](CC=C(C)C)C1(C)C)C2=O` had an MIC of 4 µg/mL (≈ 8.05 µM).

Turning to `CC(C)=CCC/C(C)=C/C[C@]12C(=O)CC(=O)[C@](CC=C(C)C)(C[C@@H](CC=C(C)C)C1(C)C)C2=O`, the IC50 in test [1] was 11.7 µg/mL (≈ 25 µM); in test [2], 8.5 µg/mL (≈ 18.2 µM); in test [3] it was 10.9 µg/mL (≈ 23.4 µM).

For `CC(C)=CCC(=O)C1=C(O)[C@@]2(C)C[C@@H](CC=C(C)C)C(C)(C)[C@@](CC=C(C)C)(C1=O)C2=O`, the minimal inhibitory concentration (MIC) in test [4] stood at 4 µg/mL (≈ 9.08 µM).

Regarding `CC(C)=CC[C@@]12C[C@@H](Cc3ccccc3)C(C)(C)[C@@](C)(C(=O)C(C(=O)c3ccccc3)=C1O)C2=O`, the MIC in test [4] is > 30 µg/mL.

In test [4], `CC(C)=CC[C@@]12C[C@@H](Cc3ccccc3)C(C)(C)[C@@](CC=C(C)C)(C(=O)C(C(=O)c3ccccc3)=C1O)C2=O` yielded an MIC of 4 µg/mL (≈ 7.62 µM).

`C=CC[C@@]12C[C@@H](CC=C(C)C)C(C)(C)[C@@](CC=C)(C(=O)C(C(=O)C(C)C)=C1O)C2=O`: the MIC in test [4] amounted to 2 µg/mL (≈ 4.85 µM).

On to `CC(C)=CCC/C(C)=C/C[C@]12C[C@@H](CC=C(C)C)C(C)(C)[C@](C/C=C(\C)CCC=C(C)C)(C(=O)CC1=O)C2=O`, for which the IC50 in test [1], in test [2] and in test [3] was > 20 µg/mL in each case.

`C=CC[C@@]12C(=O)C(C(=O)C(C)C)=C(O)[C@@](Cc3ccccc3)(C[C@@H](CC=C(C)C)C1(C)C)C2=O`: the MIC in test [4] came out at 1 µg/mL (≈ 2.16 µM).

As to `C=CC[C@@]12C(=O)C(C(C)=O)=C(O)[C@@](Cc3ccccc3)(C[C@@H](CC=C(C)C)C1(C)C)C2=O`, the MIC in test [4] turned out to be 1 µg/mL (≈ 2.3 µM).

With `CC(C)=CC[C@@H]1C[C@@]2(Cc3ccccc3)C(=O)[C@](C)(C(=O)C(C(=O)c3ccccc3)=C2O)C1(C)C`, the MIC in test [4] was > 30 µg/mL.

Consider `CC(C)=CC[C@@]12C(=O)C(C(=O)c3ccccc3)=C(O)[C@@](Cc3ccccc3)(C[C@@H](Cc3ccccc3)C1(C)C)C2=O`, for which inhibition of growth in test [4] (MIC) required 4 µg/mL (≈ 7.32 µM).

`CC(=O)C1=C(O)[C@@]2(Cc3ccccc3)C[C@@H](CC=C(C)C)C(C)(C)[C@@](CC=C(C)C)(C1=O)C2=O`: in test [4], inhibition of growth (MIC) required 0.5 µg/mL (≈ 1.08 µM).

Consider `CC(C)=CCC/C(C)=C/C[C@@H]1C[C@@]2(CC=C(C)C)C(=O)CC(=O)[C@](CC=C(C)C)(C2=O)C1(C)C`, for which the IC50 in test [1] was 9.69 µg/mL (≈ 20.8 µM); in test [2] it was 6.89 µg/mL (≈ 14.8 µM); in test [3] it was 9.14 µg/mL (≈ 19.6 µM).

Consider `CC(C)=CCC/C(C)=C/C[C@]12C[C@@H](CC=C(C)C)C(C)(C)[C@](CC=C(C)C)(C(=O)CC1=O)C2=O`, for which the IC50 in test [1] was determined as 6.64 µg/mL (≈ 14.2 µM); in test [2] it was 5.6 µg/mL (≈ 12 µM); in test [3], 6.46 µg/mL (≈ 13.8 µM).

The compound `CC(C)=CC[C@@H]1C[C@@]2(CC=C(C)C)C(=O)[C@](CC=C(C)C)(C(=O)C(C(=O)C(C)C)=C2O)C1(C)C` came in with an MIC in test [4] of 2 µg/mL (≈ 4.27 µM).

In the case of `CC(C)=CC[C@H]1C[C@@]2(CC=C(C)C)C(=O)c3c(oc4cc(O)c(O)cc4c3=O)[C@](CC=C(C)C)(C2=O)C1(C)C`, the IC50 in test [1] was 7.65 µg/mL (≈ 14.4 µM); in test [2] it was 7.65 µg/mL (≈ 14.4 µM); in test [3] it was 5.96 µg/mL (≈ 11.2 µM).

With `CC(C)=CC[C@@H]1C[C@@]2(Cc3ccccc3)C(=O)[C@](CC=C(C)C)(C(=O)C(C(=O)c3ccccc3)=C2O)C1(C)C`, the MIC in test [4] was 1 µg/mL (≈ 1.91 µM).

In turn, `CC(C)=CCC(=O)C1=C(O)[C@@]2(Cc3ccccc3)C[C@@H](CC=C(C)C)C(C)(C)[C@@](CC=C(C)C)(C1=O)C2=O` displayed a minimum inhibitory concentration (MIC) in test [4] of 2 µg/mL (≈ 3.87 µM).

For the compound `CC(C)=CCC/C(C)=C/C[C@@H]1C[C@@]2(C/C=C(\C)CCC=C(C)C)C(=O)CC(=O)[C@](CC=C(C)C)(C2=O)C1(C)C`, the IC50 in test [1], in test [2] and in test [3] was > 20 µg/mL each time.

Turning to `CC(C)=CCC1=C(O)[C@@]2(C(=O)c3ccccc3)C(=O)[C@](CC=C(C)C)(C[C@H](CC=C(C)C)C2(C)C)C1=O`, the pIC50 in test [5] and in test [6] was > 6.00 each time.

As for `CC(C)=CC[C@H]1C[C@@]2(CC=C(C)C)C(=O)c3c(oc4c(O)c(O)ccc4c3=O)[C@](CC=C(C)C)(C2=O)C1(C)C`, the IC50 in test [1] worked out at 4.69 µg/mL (≈ 8.8 µM); in test [2] it was 4.69 µg/mL (≈ 8.8 µM); in test [3], 2.44 µg/mL (≈ 4.58 µM).

As to `CC(C)=CC[C@@H]1C[C@@]2(CC=C(C)C)C(=O)[C@](C)(C(=O)C(C(=O)c3ccccc3)=C2O)C1(C)C`, the MIC in test [4] is > 30 µg/mL.

In test [4], `CC(C)=CC[C@@H]1C[C@]2(CC=C(C)C)C(=O)C(C(=O)c3ccccc3)=C3O[C@H](C(C)(C)O)C[C@]3(C2=O)C1(C)C` returned an MIC of 4 µg/mL (≈ 7.71 µM).

For the compound `CC(C)=CC[C@@H]1C[C@@]2(CC=C(C)C)C(=O)[C@](CC=C(C)C)(C(=O)C(C(=O)c3ccccc3)=C2O)C1(C)C` [CLUSIANONE], the MIC in test [4] was determined as 1 µg/mL (≈ 1.99 µM).

As for `CC(C)=CCC/C(C)=C/C[C@]12C[C@@H](CC=C(C)C)C(C)(C)[C@](C/C=C(\C)CCC=C(C)C)(C(=O)C(C(=O)c3ccc(O)c(O)c3)=C1O)C2=O` [GUTTIFERONE O], the IC50 in test [1], in test [2] and in test [3] was > 20 µg/mL in each case.

In the case of `CC(C)=CCC/C(C)=C/C[C@@H]1C[C@]2(CC=C(C)C)C(=O)[C@@](CC=C(C)C)(C(=O)C(C(=O)c3ccc(O)c(O)c3)=C2O)C1(C)C` [OBLONGIFOLIN B], the IC50 in test [1], in test [2] and in test [3] was > 20 µg/mL throughout.

Source of the values: ChEMBL document CHEMBL5230102, “Bicyclic polyprenylated acylphloroglucinols and their derivatives: structural modification, structure-activity relationship, biological activity and mechanism of action” (Eur J Med Chem, 2020).
